From paper PMC9632963, “Preclinical characterization and phase I clinical trial of CT053PTSA targets MET, AXL, and VEGFR2 in patients with advanced solid tumors” (Frontiers in Immunology, 2022)
Several values for one entry are separate records, joined by “and”; a condition that tells them apart may be missing. Equal values may be shown once. Entries after “also recorded” stand apart in the source; their conditions may differ.

Assays:
[1] = test system: patients with advanced solid tumors; test: Phase I trial: antitumor activity (RECIST 1.1); format: in vivo, human
Description: Descriptive statistics of safety are presented per CTCAE v4.0. Subjects who received at least one dose of CT053PTSA were considered eligible to be evaluated and included in safety analyses. […] According to the RECIST 1.1 criteria, imaging examinations were performed at each specified time point in the protocol. The antitumor activity was measured by RECIST1.1.

[2] = test system: circulating tumor DNA (ctDNA); test: Circulating tumor DNA sequencing in plasma of one NSCLC patient; format: in vivo, human
Description: Moreover, we analyzed the patient who achieved SD for 24 weeks. The patient was a person with EGFR exon 19-21 wild type, ALK negative non-small cell lung cancer (NSCLC). They had failed 1 line of platinum-based chemotherapy with a PFS of 27 months. […] The plasma of the patient was prospectively collection on the first day of cycle 1, 3, 6, whole exon sequencing of 416 genes was performed to assess circulating tumor DNA (ctDNA) with Illumina platform. […] The patient received 6-time tumor assessments, the response was classified as SD ( Figure 5E ), and the nontarget lesions remained unchanged ( Figure 5F ). However, the patient experienced tumor progression after 6 cycles of CT053PTSA administration, and which point, the target lesion enlarged.

EphA8 = EphA8 (Homo sapiens, UniProt P29322); test: Kinase inhibition assay (LANCE or HTRF); format: biochemical; details: ATP at Km
Description: (§1) The IC50 values were determined by measuring phosphorylation of peptide substrate poly at ATP concentrations at the Km.

Tyro3 = Tyro3 (Homo sapiens, UniProt Q06418); test: Kinase inhibition assay (LANCE or HTRF); format: biochemical; details: ATP at Km
Description: as §1

FRK = FRK (Homo sapiens, UniProt P42685); test: Kinase inhibition assay (LANCE or HTRF); format: biochemical; details: ATP at Km
Description: as §1

ITK = ITK (Homo sapiens, UniProt Q08881); test: Kinase inhibition assay (LANCE or HTRF); format: biochemical; details: ATP at Km
Description: as §1

Musk = Musk (Homo sapiens, UniProt O15146); test: Kinase inhibition assay (LANCE or HTRF); format: biochemical; details: ATP at Km
Description: as §1

MLK = test: Kinase inhibition assay (LANCE or HTRF); format: biochemical, human; details: ATP at Km
Description: as §1

HUVECs = test: Endothelial cell tubule formation assay, VEGF-induced; format: cell-based; details: Homo sapiens, HUVEC, VEGF 40 ng/ml, 8 hours
Source text: Then, after staining with Calcein AM (ThermoFisher, CA, USA), images of tubule formation were captured, and the total tube area was quantified with ImageXpress HCS (Molecular Devices, CA, USA).

SNU-5 = test: Cell proliferation assay (CellTiter-Glo, 72 hours); format: cell-based; details: Homo sapiens, read-out: IC50 anti-proliferative
Description: (§2) Human gastric tumor cell lines with high MET expression levels, namely, the GTL-16, MKN45, SNU638, Hs746T, SNU-620, and SNU-5 cell lines, were used in the assay. […] Cell viability was measured after 72 hours using a CellTiter-Glo Luminescent Cell Viability Assay Kit (Promega, WI, USA) according to the manufacturer’s instructions.

SNU638 = test: Cell proliferation assay (CellTiter-Glo, 72 hours); format: cell-based; details: Homo sapiens, SNU-638, read-out: IC50 anti-proliferative
Description: as §2

SNU620 = test: Cell proliferation assay (CellTiter-Glo, 72 hours); format: cell-based; details: Homo sapiens, read-out: IC50 anti-proliferative
Description: as §2

GTL16 = test: Cell proliferation assay (CellTiter-Glo, 72 hours); format: cell-based; details: Homo sapiens, GTL 16, read-out: IC50 anti-proliferative
Description: as §2

SNU-16 = test: Cell proliferation assay (CellTiter-Glo, 72 hours); format: cell-based; details: Homo sapiens, read-out: IC50 anti-proliferative
Description: (§3) Human gastric tumor cell lines with high MET expression levels, namely, the GTL-16, MKN45, SNU638, Hs746T, SNU-620, and SNU-5 cell lines, were used in the assay. These cell lines were obtained from American Type Culture Collection (ATCC), Japanese Collection of Research Bioresources (JCRB), Shanghai Institutes of Biological Sciences, CAS (SIBS), Korean Cell Line Bank (KCLB) or National Institutes of Health (NIH). […] Cell viability was measured after 72 hours using a CellTiter-Glo Luminescent Cell Viability Assay Kit (Promega, WI, USA) according to the manufacturer’s instructions.

AGS = test: Cell proliferation assay (CellTiter-Glo, 72 hours); format: cell-based; details: Homo sapiens, read-out: IC50 anti-proliferative
Description: (§4) These cell lines were obtained from American Type Culture Collection (ATCC), Japanese Collection of Research Bioresources (JCRB), Shanghai Institutes of Biological Sciences, CAS (SIBS), Korean Cell Line Bank (KCLB) or National Institutes of Health (NIH). […] Cell viability was measured after 72 hours using a CellTiter-Glo Luminescent Cell Viability Assay Kit (Promega, WI, USA) according to the manufacturer’s instructions.

NCI-N87 = test: Cell proliferation assay (CellTiter-Glo, 72 hours); format: cell-based; details: Homo sapiens, read-out: IC50 anti-proliferative
Description: as §4

SNU-216 = test: Cell proliferation assay (CellTiter-Glo, 72 hours); format: cell-based; details: Homo sapiens, read-out: IC50 anti-proliferative
Description: as §3

NUGC-4 = test: Cell proliferation assay (CellTiter-Glo, 72 hours); format: cell-based; details: Homo sapiens, read-out: IC50 anti-proliferative
Description: as §4

NUGC3 = test: Cell proliferation assay (CellTiter-Glo, 72 hours); format: cell-based; details: Homo sapiens, NUGC-3, read-out: IC50 anti-proliferative
Description: as §3

[3] = Body weight of tumor-bearing mice in efficacy studies; format: in vivo; details: all groups, 1-20 mg/kg
Description: Human tumor xenografts were established in female BALB/cA nude mice (5-6 weeks old) by administering the SNU-5 and MKN-45 cells, which have high MET expression levels. For efficacy studies in patient-derived tumor xenograft (PDX) mouse models, MET-overexpressing GA0046 and GA3121 tumors (obtained from Crownbio, CA, USA) were established by directly implanting surgical tissues into immunodeficient mice. […] The subcutaneous tumor size and body weight were measured twice weekly. The tumor volumes were determined by measuring two perpendicular diameters with calipers and calculated as (length × width^2)/2.

[4] = target: KinomeScan panel of 95 kinase binding assays; test: KinomeScan kinase binding assay, panel of 95 kinase assays; details: 10 μM single concentration
Description: KinomeScan kinase binding assays were performed as described in reports i.
%Ctrl Calculation: [test compound signal-positive control signalnegative control signal-positive control signal]?100
test compound = compound submitted by Calitor; negative control = DMSO (100%Ctrl); positive control = control compound (0%Ctrl).

AXL = AXL (Homo sapiens, UniProt P30530); test: Kinase inhibition assay (LANCE or HTRF); format: biochemical; design: expressing full-length human AXL (AXL-MEFs); expressed in transfected cells; host or cells: mouse embryonic fibroblasts (MEFs); details: ATP at Km
Description: as §1

FLT3 = FLT3 (Homo sapiens, UniProt P36888); test: Cellular kinase phosphorylation assay (sandwich ELISA), FLT3-wt-MEFs, FLT3-ligand stimulated; format: cell-based; design: MEFs expressing full-length human FLT3 (FLT3-wt-MEFs); expressed in transfected cells; host or cells: mouse embryonic fibroblasts (MEFs); details: FLT3-ligand 50 ng/ml
Chain of FLT3 (P36888 27-993): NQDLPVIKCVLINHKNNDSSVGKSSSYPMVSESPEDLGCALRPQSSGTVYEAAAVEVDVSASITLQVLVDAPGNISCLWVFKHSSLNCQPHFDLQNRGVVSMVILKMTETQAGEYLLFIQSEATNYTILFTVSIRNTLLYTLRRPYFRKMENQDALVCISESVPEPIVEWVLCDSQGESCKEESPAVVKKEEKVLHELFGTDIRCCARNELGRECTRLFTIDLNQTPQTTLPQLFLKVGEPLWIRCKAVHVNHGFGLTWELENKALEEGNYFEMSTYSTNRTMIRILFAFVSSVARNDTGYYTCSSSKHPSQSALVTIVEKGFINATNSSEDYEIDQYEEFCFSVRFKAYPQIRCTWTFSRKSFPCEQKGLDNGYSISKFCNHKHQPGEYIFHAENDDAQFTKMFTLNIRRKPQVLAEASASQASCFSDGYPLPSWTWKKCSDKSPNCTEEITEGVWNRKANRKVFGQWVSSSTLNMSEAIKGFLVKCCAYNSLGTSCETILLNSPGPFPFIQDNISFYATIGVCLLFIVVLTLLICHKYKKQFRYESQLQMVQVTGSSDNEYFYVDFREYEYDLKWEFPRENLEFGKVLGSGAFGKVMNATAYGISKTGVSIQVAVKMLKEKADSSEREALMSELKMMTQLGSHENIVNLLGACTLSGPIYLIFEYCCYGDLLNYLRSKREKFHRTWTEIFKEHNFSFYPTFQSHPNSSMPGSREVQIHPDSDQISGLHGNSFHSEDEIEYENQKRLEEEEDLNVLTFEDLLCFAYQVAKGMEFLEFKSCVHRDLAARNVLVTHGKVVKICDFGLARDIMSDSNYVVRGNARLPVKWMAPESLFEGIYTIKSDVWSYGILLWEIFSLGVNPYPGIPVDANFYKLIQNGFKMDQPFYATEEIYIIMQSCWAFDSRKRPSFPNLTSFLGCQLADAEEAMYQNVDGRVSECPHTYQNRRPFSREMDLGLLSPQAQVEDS
Description: Phosphorylation of the receptors MET, AXL, VEGFR2, and FLT3 was assessed in the transgenic human MKN45 gastric tumor cell line overexpressing MET, mouse embryonic fibroblasts (MEFs) expressing full-length human AXL (AXL-MEFs), human umbilical vein endothelial cells (HUVECs) overexpressing VEGFR-2, and MEFs expressing full-length human FLT3 (FLT3-wt-MEFs), respectively. […] Then, HUVECs and FLT3-wt-MEFs were stimulated with the ligands VEGF-A (100 ng/ml, for 3 min) and FLT3-ligand (50 ng/ml, for 5 min). MKN45 (overexpressing MET) and AXL-MEFs cells had no stimulation. […] Raw data were converted into percent substrate phosphorylation relative to high controls, which were set to 100%.

Chain of FRK (P42685 whole entry): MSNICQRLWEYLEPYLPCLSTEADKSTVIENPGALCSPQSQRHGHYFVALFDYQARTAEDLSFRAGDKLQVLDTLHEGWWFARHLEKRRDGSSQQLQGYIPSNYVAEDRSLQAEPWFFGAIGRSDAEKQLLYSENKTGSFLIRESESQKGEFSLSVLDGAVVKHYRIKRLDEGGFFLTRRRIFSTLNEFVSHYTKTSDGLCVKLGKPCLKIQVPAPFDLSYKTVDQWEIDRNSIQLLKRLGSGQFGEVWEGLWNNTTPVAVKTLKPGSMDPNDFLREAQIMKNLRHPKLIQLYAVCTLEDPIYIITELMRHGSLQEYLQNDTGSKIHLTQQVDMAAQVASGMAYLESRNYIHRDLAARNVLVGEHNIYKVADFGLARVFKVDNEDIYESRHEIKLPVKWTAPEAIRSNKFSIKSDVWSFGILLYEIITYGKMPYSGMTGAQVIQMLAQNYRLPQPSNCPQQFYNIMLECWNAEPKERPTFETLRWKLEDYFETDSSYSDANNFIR
Chain of AXL (P30530 26-894): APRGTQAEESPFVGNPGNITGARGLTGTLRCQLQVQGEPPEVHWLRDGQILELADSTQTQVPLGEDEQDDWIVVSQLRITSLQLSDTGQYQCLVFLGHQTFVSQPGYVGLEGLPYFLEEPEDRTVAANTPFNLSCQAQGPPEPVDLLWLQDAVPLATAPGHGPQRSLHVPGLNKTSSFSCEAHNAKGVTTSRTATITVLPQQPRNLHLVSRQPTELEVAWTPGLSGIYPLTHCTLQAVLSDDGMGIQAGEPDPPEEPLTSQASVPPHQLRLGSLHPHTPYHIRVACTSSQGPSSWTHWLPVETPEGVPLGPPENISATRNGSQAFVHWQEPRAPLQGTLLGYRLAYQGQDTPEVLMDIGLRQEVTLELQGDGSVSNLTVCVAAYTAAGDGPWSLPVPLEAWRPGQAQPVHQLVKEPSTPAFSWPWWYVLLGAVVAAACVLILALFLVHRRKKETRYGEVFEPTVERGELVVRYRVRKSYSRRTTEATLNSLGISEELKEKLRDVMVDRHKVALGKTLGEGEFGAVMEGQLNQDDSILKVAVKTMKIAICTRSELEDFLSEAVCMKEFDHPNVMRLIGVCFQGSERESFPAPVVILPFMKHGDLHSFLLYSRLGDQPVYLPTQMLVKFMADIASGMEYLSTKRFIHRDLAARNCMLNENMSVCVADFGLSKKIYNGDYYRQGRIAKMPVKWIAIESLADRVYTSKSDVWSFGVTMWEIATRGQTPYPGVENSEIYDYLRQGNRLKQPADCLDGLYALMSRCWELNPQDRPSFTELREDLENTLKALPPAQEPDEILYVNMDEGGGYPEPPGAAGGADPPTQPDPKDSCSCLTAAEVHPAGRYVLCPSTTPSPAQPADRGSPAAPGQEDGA
Chain of Musk (O15146 24-869): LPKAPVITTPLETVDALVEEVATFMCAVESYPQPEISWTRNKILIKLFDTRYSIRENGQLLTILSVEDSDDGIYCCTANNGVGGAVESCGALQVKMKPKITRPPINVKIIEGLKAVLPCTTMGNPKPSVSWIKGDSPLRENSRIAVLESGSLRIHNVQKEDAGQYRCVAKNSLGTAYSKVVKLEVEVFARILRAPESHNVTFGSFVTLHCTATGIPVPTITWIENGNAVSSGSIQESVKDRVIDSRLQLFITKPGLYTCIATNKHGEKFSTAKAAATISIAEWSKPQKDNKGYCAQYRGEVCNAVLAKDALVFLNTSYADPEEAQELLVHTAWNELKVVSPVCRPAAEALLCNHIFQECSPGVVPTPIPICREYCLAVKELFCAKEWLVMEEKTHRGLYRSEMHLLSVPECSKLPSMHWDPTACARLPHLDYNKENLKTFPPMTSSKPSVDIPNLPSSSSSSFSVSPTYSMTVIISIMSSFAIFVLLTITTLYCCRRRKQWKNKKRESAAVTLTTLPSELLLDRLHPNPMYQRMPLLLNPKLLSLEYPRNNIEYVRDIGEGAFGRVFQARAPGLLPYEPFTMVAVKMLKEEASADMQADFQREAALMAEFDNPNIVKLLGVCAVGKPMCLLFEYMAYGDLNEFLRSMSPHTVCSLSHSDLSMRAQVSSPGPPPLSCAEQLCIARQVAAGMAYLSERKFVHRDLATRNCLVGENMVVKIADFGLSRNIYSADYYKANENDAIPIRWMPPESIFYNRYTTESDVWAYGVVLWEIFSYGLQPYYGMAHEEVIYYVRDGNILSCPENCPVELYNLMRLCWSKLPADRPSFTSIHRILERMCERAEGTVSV
Chain of Tyro3 (Q06418 41-890): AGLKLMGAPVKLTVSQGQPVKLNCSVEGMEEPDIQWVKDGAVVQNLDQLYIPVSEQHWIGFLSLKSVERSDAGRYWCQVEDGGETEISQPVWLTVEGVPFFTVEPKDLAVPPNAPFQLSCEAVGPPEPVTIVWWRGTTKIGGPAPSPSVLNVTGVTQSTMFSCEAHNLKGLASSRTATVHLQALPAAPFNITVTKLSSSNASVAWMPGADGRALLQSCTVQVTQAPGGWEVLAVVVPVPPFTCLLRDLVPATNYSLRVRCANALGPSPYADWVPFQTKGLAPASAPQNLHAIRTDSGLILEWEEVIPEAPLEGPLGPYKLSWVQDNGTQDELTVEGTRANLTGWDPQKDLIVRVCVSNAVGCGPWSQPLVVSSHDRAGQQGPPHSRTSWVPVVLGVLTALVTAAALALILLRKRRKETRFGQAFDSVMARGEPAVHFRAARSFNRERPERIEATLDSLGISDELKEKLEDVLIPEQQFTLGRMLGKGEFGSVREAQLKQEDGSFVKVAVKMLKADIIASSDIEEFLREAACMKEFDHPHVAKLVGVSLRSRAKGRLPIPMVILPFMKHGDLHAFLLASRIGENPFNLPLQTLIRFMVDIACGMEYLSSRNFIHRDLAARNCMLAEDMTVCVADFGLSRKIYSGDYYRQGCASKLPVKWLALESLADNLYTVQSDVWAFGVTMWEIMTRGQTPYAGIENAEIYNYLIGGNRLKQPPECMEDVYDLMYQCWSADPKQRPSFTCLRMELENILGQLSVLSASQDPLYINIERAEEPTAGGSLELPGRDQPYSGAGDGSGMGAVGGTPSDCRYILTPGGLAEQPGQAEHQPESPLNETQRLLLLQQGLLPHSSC
Chain of ITK (Q08881 whole entry): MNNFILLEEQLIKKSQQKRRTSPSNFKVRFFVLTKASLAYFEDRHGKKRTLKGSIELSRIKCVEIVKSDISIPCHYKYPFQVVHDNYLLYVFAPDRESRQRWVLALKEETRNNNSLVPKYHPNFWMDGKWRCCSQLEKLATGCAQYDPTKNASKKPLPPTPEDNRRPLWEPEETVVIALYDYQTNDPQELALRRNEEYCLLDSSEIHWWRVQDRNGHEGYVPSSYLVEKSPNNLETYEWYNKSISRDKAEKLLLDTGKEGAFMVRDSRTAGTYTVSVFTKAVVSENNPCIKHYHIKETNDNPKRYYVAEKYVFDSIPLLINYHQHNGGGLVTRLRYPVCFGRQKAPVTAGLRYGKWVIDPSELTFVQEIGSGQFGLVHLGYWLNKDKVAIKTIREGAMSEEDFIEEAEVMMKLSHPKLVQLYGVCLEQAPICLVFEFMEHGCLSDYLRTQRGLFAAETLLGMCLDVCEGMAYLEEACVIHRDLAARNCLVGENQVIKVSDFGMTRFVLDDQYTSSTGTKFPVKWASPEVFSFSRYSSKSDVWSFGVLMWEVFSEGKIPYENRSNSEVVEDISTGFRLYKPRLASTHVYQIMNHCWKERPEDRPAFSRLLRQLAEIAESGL

## Cc1c(C(=O)Nc2ccc(Oc3ccnc4cc(OCC(C)(C)O)ccc34)c(F)c2)c(=O)n(-c2ccccc2)n1C [CT053PTSA]
[1]; 60 mg QD
  duration of SD in single patients: 16 weeks and 24 weeks
[1]; 100 mg dose group
  duration of SD in single patient: 8 weeks
[1]; 17 evaluated patients
  CR or PR: none of them achieved CR or PR; also recorded: No CR or PR was observed
  DCR: 29.4%
[2]; Cycle 1, 60 mg
  ctDNA APC p.E520X (c. G1558T): 0%
  ctDNA AXL p. A79T (c. G235A): 0%
  ctDNA BRCA1 p.E344X (c. G1030T): 0.32%
  ctDNA EGFR p. F712Y (c. T2135A): 0.12%
  ctDNA FLT3 p.p893L (c.C2678T): 0%
  ctDNA FLT4 p.D998V (c.A2993T): 0%
  ctDNA FP300 p.Q2332X (c.C6994T): 0.19%
  ctDNA PALB2 p.C800X (c.T2400A): 0%
[2]; Cycle 3, 60 mg
  ctDNA APC p.E520X (c. G1558T): 0%
  ctDNA AXL p. A79T (c. G235A): 0%
  ctDNA BRCA1 p.E344X (c. G1030T): 0.12%
  ctDNA EGFR p. F712Y (c. T2135A): 0%
  ctDNA FLT3 p.p893L (c.C2678T): 0%
  ctDNA FLT4 p.D998V (c.A2993T): 0%
  ctDNA FP300 p.Q2332X (c.C6994T): 0.21%
  ctDNA PALB2 p.C800X (c.T2400A): 0%
[2]; Cycle 6, 60 mg
  ctDNA APC p.E520X (c. G1558T): 0%
  ctDNA AXL p. A79T (c. G235A): 0%
  ctDNA BRCA1 p.E344X (c. G1030T): 0%
  ctDNA EGFR p. F712Y (c. T2135A): 0%
  ctDNA FLT3 p.p893L (c.C2678T): 0%
  ctDNA FLT4 p.D998V (c.A2993T): 0%
  ctDNA FP300 p.Q2332X (c.C6994T): 0%
  ctDNA PALB2 p.C800X (c.T2400A): 0%

## Cc1c(C(=O)Nc2ccc(Oc3ccnc4cc(OCC(C)(C)O)ccc34)c(F)c2)c(=O)n(-c2ccccc2)n1C [CT053]
EphA8
  IC50: 0.62 µM
Tyro3
  IC50: 0.15 µM
FRK
  IC50: 0.52 µM
ITK
  IC50: 0.24 µM
Musk
  IC50: 0.31 µM
MLK
  IC50: 0.16 µM
HUVECs; read-out: IC50, percentage area of tube formation (+ VEGF)
  IC50: 0.02 µM
HUVECs; read-out: IC90, Tube Area % Effect (+ VEGF)
  IC90: 0.17 µM
SNU-5
  IC50: 0.06 µM
SNU638
  IC50: 0.09 µM
SNU620
  IC50: 0.06 µM
GTL16
  IC50: 0.17 µM
SNU-16
  IC50: > 10 µM
AGS
  IC50: > 10 µM
NCI-N87
  IC50: > 10 µM
SNU-216
  IC50: > 10 µM
NUGC-4
  IC50: > 10 µM
NUGC3
  IC50: > 10 µM
[3]
  change in body weight: no significant change in body weight
[4]
  kinase interaction pattern: highly specific
AXL
  IC50: 0.0034 µM
FLT3
  IC50: 0.0015 µM
